Assay results taken from ChEMBL document CHEMBL1152303, “Synthesis and biological evaluation of a series of liver-selective phosphonic acid thyroid hormone receptor agonists and their prodrugs” (J Med Chem, 2008).

Experiments:
Rattus norvegicus [1] = assay: Agonist activity at thyroid hormone receptor in Sprague-Dawley rat assessed as liver mGPDH activity at 1 mg/kg administered through osmotic pump infusion per ug protein; assay type: functional
Rattus norvegicus [2] = assay: Agonist activity at thyroid hormone receptor in Sprague-Dawley rat assessed as heart mGPDH activity at 1 mg/kg administered through osmotic pump infusion per ug protein; assay type: functional
Rattus norvegicus [3] = assay: Reduction in total plasma cholesterol level in cholesterol-fed Sprague-Dawley rat at 0.5 mg/kg, po after 24 hrs; assay type: functional; parameters: scale not given: the % may be the effect or the level left
[4] = biological target: T1, Thyroid hormone receptor alpha (Homo sapiens, UniProt P10827)
T1 sequence (P10827 whole entry): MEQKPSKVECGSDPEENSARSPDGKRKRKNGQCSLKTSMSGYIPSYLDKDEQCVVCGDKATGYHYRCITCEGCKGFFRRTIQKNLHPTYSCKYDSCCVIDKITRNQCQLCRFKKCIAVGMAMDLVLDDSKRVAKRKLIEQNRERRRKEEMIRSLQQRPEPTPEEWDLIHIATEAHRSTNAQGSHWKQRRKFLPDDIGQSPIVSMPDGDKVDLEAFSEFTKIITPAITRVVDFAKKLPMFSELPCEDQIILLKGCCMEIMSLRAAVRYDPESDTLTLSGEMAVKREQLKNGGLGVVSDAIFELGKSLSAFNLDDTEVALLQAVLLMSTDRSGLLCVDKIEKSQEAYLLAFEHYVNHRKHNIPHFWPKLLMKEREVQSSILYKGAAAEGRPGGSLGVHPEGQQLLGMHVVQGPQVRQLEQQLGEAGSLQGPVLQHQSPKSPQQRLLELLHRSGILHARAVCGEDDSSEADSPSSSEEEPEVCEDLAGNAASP
Description: Displacement of [125I]3,5,3'-triiodo-L-thyronine from His-tagged human recombinant TRalpha1 by scintillation proximity assay

Rattus norvegicus [5] = assay: Reduction in total plasma cholesterol level in cholesterol-fed Sprague-Dawley rat at 0.2 mg/kg, ip after 24 hrs; assay type: functional; parameters: scale not given: the % may be the effect or the level left; conditions: route intraperitoneal
[6] = biological target: T2, Thyroid hormone receptor beta (Homo sapiens, UniProt P10828)
T2 sequence (P10828 whole entry): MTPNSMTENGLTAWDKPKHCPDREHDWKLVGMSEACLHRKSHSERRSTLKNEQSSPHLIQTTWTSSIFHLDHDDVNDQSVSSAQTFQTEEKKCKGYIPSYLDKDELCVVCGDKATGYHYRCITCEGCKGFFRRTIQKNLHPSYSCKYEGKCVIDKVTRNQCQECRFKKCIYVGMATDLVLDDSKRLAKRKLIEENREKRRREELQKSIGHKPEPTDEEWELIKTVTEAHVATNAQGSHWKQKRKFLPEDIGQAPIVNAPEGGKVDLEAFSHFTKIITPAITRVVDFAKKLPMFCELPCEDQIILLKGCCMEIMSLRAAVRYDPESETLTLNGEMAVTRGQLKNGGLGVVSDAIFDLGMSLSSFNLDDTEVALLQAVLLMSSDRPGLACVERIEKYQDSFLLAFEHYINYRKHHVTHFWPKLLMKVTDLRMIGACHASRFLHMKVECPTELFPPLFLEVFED
Description: Displacement of [125I]3,5,3'-triiodo-L-thyronine His-tagged human recombinant TRbeta1 by scintillation proximity assay

[7] = Tmax in Sprague-Dawley rat at 3 mg/kg, iv; assay type: ADME, organism-based; parameters: dose 3 mg/kg, route intravenous; conditions: in vivo
Rattus norvegicus [8] = assay: Tmax in Sprague-Dawley rat at 3 mg/kg, po; assay type: ADME, organism-based; parameters: dose 3 mg/kg, route oral; conditions: in vivo
Rattus norvegicus [9] = assay: Cmax in Sprague-Dawley rat at 3 mg/kg, iv; assay type: ADME, organism-based; parameters: dose 3 mg/kg, route intravenous; conditions: in vivo
Rattus norvegicus [10] = assay: Oral bioavailability in Sprague-Dawley rat assessed as 3,5-Dimethyl-4-(4'-hydroxy-3'-isopropylbenzyl)phenoxy]methylphosphonic acid level at 3 mg/kg; assay type: ADME, organism-based; conditions: in vivo
[11] = Mean residence time in Sprague-Dawley rat at 3 mg/kg, iv; assay type: ADME, organism-based; parameters: dose 3 mg/kg, route intravenous; conditions: in vivo
Rattus norvegicus [12] = assay: Cmax in Sprague-Dawley rat at 3 mg/kg, po; assay type: ADME, organism-based; parameters: dose 3 mg/kg, route oral; conditions: in vivo
Rattus norvegicus [13] = assay: Tmax in Sprague-Dawley rat assessed as 3,5-Dimethyl-4-(4'-hydroxy-3'-isopropylbenzyl)phenoxy]methylphosphonic acid level at 3 mg/kg, po; assay type: ADME, organism-based; parameters: dose 3 mg/kg, route oral; conditions: in vivo
[14] = AUClast in Sprague-Dawley rat at 3 mg/kg, iv; assay type: ADME, organism-based; parameters: time 0 - last, dose 3 mg/kg, route intravenous; conditions: plasma
Rattus norvegicus [15] = assay: Cmax in Sprague-Dawley rat assessed as 3,5-Dimethyl-4-(4'-hydroxy-3'-isopropylbenzyl)phenoxy]methylphosphonic acid level at 3 mg/kg, po; assay type: ADME, organism-based; parameters: dose 3 mg/kg, route oral; conditions: in vivo
Rattus norvegicus [16] = assay: Cmax in Sprague-Dawley rat assessed as 3,5-Dimethyl-4-(4'-hydroxy-3'-isopropylbenzyl)phenoxy]methylphosphonic acid level at 3 mg/kg, iv; assay type: ADME, organism-based; parameters: dose 3 mg/kg, route intravenous; conditions: in vivo
[17] = AUClast in Sprague-Dawley rat at 3 mg/kg, po; assay type: ADME, organism-based; parameters: time 0 - last, dose 3 mg/kg, route oral; conditions: plasma
Rattus norvegicus [18] = assay: Half life in Sprague-Dawley rat at 3 mg/kg, po; assay type: ADME, organism-based; parameters: dose 3 mg/kg, route oral; conditions: in vivo
Rattus norvegicus [19] = assay: Mean residence time in Sprague-Dawley rat assessed as 3,5-Dimethyl-4-(4'-hydroxy-3'-isopropylbenzyl)phenoxy]methylphosphonic acid level at 3 mg/kg, po; assay type: ADME, organism-based; parameters: dose 3 mg/kg, route oral; conditions: in vivo
Rattus norvegicus [20] = assay: Mean absorption time in Sprague-Dawley rat assessed as 3,5-Dimethyl-4-(4'-hydroxy-3'-isopropylbenzyl)phenoxy]methylphosphonic acid level at 3 mg/kg, po; assay type: ADME, organism-based; parameters: dose 3 mg/kg, route oral; conditions: in vivo
[21] = Oral bioavailability in Sprague-Dawley rat at 3 mg/kg; assay type: ADME, organism-based; conditions: in vivo
[22] = Mean residence time in Sprague-Dawley rat at 3 mg/kg, po; assay type: ADME, organism-based; parameters: dose 3 mg/kg, route oral; conditions: in vivo
Rattus norvegicus [23] = assay: Half life in Sprague-Dawley rat assessed as 3,5-Dimethyl-4-(4'-hydroxy-3'-isopropylbenzyl)phenoxy]methylphosphonic acid level at 3 mg/kg, iv; assay type: ADME, organism-based; parameters: dose 3 mg/kg, route intravenous; conditions: in vivo
Rattus norvegicus [24] = assay: Half life in Sprague-Dawley rat assessed as 3,5-Dimethyl-4-(4'-hydroxy-3'-isopropylbenzyl)phenoxy]methylphosphonic acid level at 3 mg/kg, po; assay type: ADME, organism-based; parameters: dose 3 mg/kg, route oral; conditions: in vivo
Rattus norvegicus [25] = assay: Mean absorption time in Sprague-Dawley rat at 3 mg/kg, po; assay type: ADME, organism-based; parameters: dose 3 mg/kg, route oral; conditions: in vivo
Rattus norvegicus [26] = assay: Reduction in total plasma cholesterol level in cholesterol-fed orally dosed Sprague-Dawley rat after 24 hrs; assay type: functional; conditions: po
Rattus norvegicus [27] = assay: Half life in Sprague-Dawley rat at 3 mg/kg, iv; assay type: ADME, organism-based; parameters: dose 3 mg/kg, route intravenous; conditions: in vivo
Rattus norvegicus [28] = assay: AUClast in Sprague-Dawley rat assessed as 3,5-Dimethyl-4-(4'-hydroxy-3'-isopropylbenzyl)phenoxy]methylphosphonic acid level at 3 mg/kg, iv; assay type: ADME, organism-based, Plasma; parameters: time 0 - last, dose 3 mg/kg, route intravenous; conditions: in vivo
Rattus norvegicus [29] = assay: AUClast in Sprague-Dawley rat assessed as 3,5-Dimethyl-4-(4'-hydroxy-3'-isopropylbenzyl)phenoxy]methylphosphonic acid level at 3 mg/kg, po; assay type: ADME, organism-based, Plasma; parameters: time 0 - last, dose 3 mg/kg, route oral; conditions: in vivo
Rattus norvegicus [30] = assay: Tmax in Sprague-Dawley rat assessed as 3,5-Dimethyl-4-(4'-hydroxy-3'-isopropylbenzyl)phenoxy]methylphosphonic acid level at 3 mg/kg, iv; assay type: ADME, organism-based; parameters: dose 3 mg/kg, route intravenous; conditions: in vivo
Rattus norvegicus [31] = assay: Mean residence time in Sprague-Dawley rat assessed as 3,5-Dimethyl-4-(4'-hydroxy-3'-isopropylbenzyl)phenoxy]methylphosphonic acid level at 3 mg/kg, iv; assay type: ADME, organism-based; parameters: dose 3 mg/kg, route intravenous; conditions: in vivo
Rattus norvegicus [32] = assay: Reduction in total plasma cholesterol level in cholesterol-fed orally dosed Sprague-Dawley rat after 24 hrs relative to control; assay type: functional; parameters: scale not given: the % may be the effect or the level left
[33] = Metabolic stability in human liver S9 fraction assessed as activation rate at 100 uM after 1 hr; assay type: ADME, subcellular; conditions: s9, 1 h
[34] = Metabolic stability in human S9 liver fraction assessed as monoacid levels at 100 uM after 1 hr; assay type: ADME, subcellular; conditions: s9, 1 h
[35] = Metabolic stability in human S9 liver fraction assessed as prodrug remaining at 100 uM after 1 hr; assay type: ADME, subcellular; conditions: s9, 1 h

SMILES: Cc1cc(OCC(=O)O)cc(C)c1Cc1ccc(O)c(C(C)C)c1 [SOBETIROME]
- Activity (Rattus norvegicus [1]): 7.88 U/min
- Activity (Rattus norvegicus [2]): 4.08 U/min

SMILES: Cc1cc(OCP(=O)(OCOC(=O)OC(C)C)OCOC(=O)OC(C)C)cc(C)c1Cc1ccc(O)c(C(C)C)c1
- Activity (Rattus norvegicus [3]): 24%

SMILES: Cc1cc(NCP(=O)(O)O)cc(C)c1Cc1ccc(O)c(C(C)C)c1
- Ki [4]: 28.4 nM
- Activity (Rattus norvegicus [5]): 32.3%
- Ki [6]: 9.1 nM

SMILES: Cc1cc(OCP2(=O)OCC[C@@H](c3cccc(Cl)c3)O2)cc(C)c1Cc1ccc(O)c(C(C)C)c1 (some centres undefined) [MB07811]
- Tmax [7]: 0 h
- Tmax (Rattus norvegicus [8]): 2.1 h
- Cmax (Rattus norvegicus [9]): 600 ng/mL
- F (Rattus norvegicus [10]): 39.2%
- MRT [11]: 1.2 h
- Cmax (Rattus norvegicus [12]): 12 ng/mL
- Tmax (Rattus norvegicus [13]): 3.6 h
- AUC(0-t) [14]: 260 ng·h/mL
- Cmax (Rattus norvegicus [15]): 18 ng/mL
- Cmax (Rattus norvegicus [16]): 92 ng/mL
- AUC(0-t) [17]: 26 ng·h/mL
- t1/2 (Rattus norvegicus [18]): 0.95 h
- MRT (Rattus norvegicus [19]): 7.91 h
- MAT (Rattus norvegicus [20]): 3.4 h
- bioavailability [21]: 9.9%
- MRT [22]: 2.49 h
- t1/2 (Rattus norvegicus [23]): 8.82 h
- t1/2 (Rattus norvegicus [24]): 9.25 h
- Activity (Rattus norvegicus [3]): 36%
- MAT (Rattus norvegicus [25]): 1.29 h
- ED50 (Rattus norvegicus [26]): 0.48 mg/kg
- t1/2 (Rattus norvegicus [27]): 1.23 h
- AUClast (Rattus norvegicus [28]): 340 ng·h/mL
- AUClast (Rattus norvegicus [29]): 135 ng·h/mL
- Tmax (Rattus norvegicus [30]): 0.6 h
- MRT (Rattus norvegicus [31]): 4.49 h
- Activity (Rattus norvegicus [32]): 55%

SMILES: Cc1cc(OC[P@@]2(=O)OCC[C@@H](c3cccc(Br)c3)O2)cc(C)c1Cc1ccc(O)c(C(C)C)c1 (relative stereo)
- Activity (Rattus norvegicus [3]): 0%

SMILES: CCC(C)c1cc(Cc2c(C)cc(OCP(=O)(O)O)cc2C)ccc1O (centres undefined)
- Ki [4]: 30.5 nM
- Activity (Rattus norvegicus [5]): 20.1%

SMILES: Cc1cc(OC[P@@]2(=O)OCC[C@@H](c3cccnc3)O2)cc(C)c1Cc1ccc(O)c(C(C)C)c1 (relative stereo)
- Activity (Rattus norvegicus [3]): 39%

SMILES: CC(C)c1cc(Oc2c(Br)cc(CP(=O)(O)O)cc2Br)ccc1O
- Ki [4]: 235 nM
- Ki [6]: 15.5 nM

SMILES: Cc1cc(OCP(=O)(O)O)cc(C)c1Cc1ccc(O)c(C(C)C)c1 [MB07344]
- Activity (Rattus norvegicus [1]): 7.37 U/min
- Activity (Rattus norvegicus [5]): 37.2%
- Ki [6]: 2.95 nM
- Activity (Rattus norvegicus [2]): 1.66 U/min

SMILES: CCOC(=O)C(C)(C)NP(=O)(COc1cc(C)c(Cc2ccc(O)c(C(C)C)c2)c(C)c1)NC(C)(C)C(=O)OCC
- Activity (Rattus norvegicus [3]): 23%

SMILES: CC(=O)SCCOP(=O)(COc1cc(C)c(Cc2ccc(O)c(C(C)C)c2)c(C)c1)OCCSC(C)=O
- Activity (Rattus norvegicus [3]): 20%

SMILES: CCOC(=O)[C@H](C)NP(=O)(COc1cc(C)c(Cc2ccc(O)c(C(C)C)c2)c(C)c1)N[C@@H](C)C(=O)OCC
- Activity (Rattus norvegicus [3]): 42%

SMILES: CCOC(=O)CNP(=O)(COc1cc(C)c(Cc2ccc(O)c(C(C)C)c2)c(C)c1)NCC(=O)OCC
- Stability [33]: 73 pmol/min/mg
- Stability [34]: 6%
- Stability [35]: 70%
- Activity (Rattus norvegicus [3]): 42%
- ED50 (Rattus norvegicus [26]): 0.1 mg/kg
- Activity (Rattus norvegicus [32]): 48%

SMILES: Cc1cc(OC[P@@]2(=O)OCC[C@@H](c3cccc(F)c3)O2)cc(C)c1Cc1ccc(O)c(C(C)C)c1 (relative stereo)
- Activity (Rattus norvegicus [3]): 46%

SMILES: CC(C)c1cc(Oc2c(Br)cc(OCP(=O)(O)O)cc2Br)ccc1O
- Activity (Rattus norvegicus [5]): 42.6%

SMILES: CC(C)c1cc(Oc2c(Br)cc(CCP(=O)(O)O)cc2Br)ccc1O
- Ki [4]: 42.1 nM
- Activity (Rattus norvegicus [5]): 34.5%
- Ki [6]: 2.5 nM

SMILES: N[C@@H](Cc1cc(I)c(Oc2ccc(O)c(I)c2)c(I)c1)C(=O)O [LIOTHYRONINE]
- Activity (Rattus norvegicus [1]): 7.52 U/min
- Activity (Rattus norvegicus [2]): 4.18 U/min
